Assay results published in EP4111863A1, “PHOSPHORUS USE EFFICIENCY ENHANCERS AS PLANT GROWTH PROMOTORS” (EuroChem Antwerpen, priority 2021, dated 2023).

Experiments:
[1] = system: Arabidopsis; assay: Arabidopsis vertical plate growth assay (primary root length, shoot biomass); format: in vivo, Arabidopsis thaliana; settings: low phosphate; for Primary root length (in % versus control): Table 2, versus control without compound
Experimental: (§1) All Arabidopsis plant experiments were performed using the Arabidopsis thaliana Columbia-0 background. The Arabidopsis pSPX1::GUS line is described in the […] 2008, 54: 965-975. For rice, the cultivar Nipponbare was used. For maize, the cultivars DKC 2931 and B104 were used for regular pot experiments and sand-based pot experiments, respectively. For soybean, the cultivar Primus was used. […] The medium was solidified due to the addition of 0,6% Gelrite, unless stated otherwise. In case of vertical plates (root length and root hair measurements), the medium was supplied with 0.5% of sucrose and 1 µM (low phosphate, 1 µM KH2PO4, 9.9 mM KCI), 10 µM (low phosphate 10 µM KH2PO4, 9.9 mM KCI) or 1.25 mM KH2PO4 (high phosphate). Arabidopsis seeds were stratified for 2 days at 4 °C before germination. Seedlings were germinated in climate-controlled growth chambers at 22 °C under continuous light (100 µmol m^-2 s^-1). Husked rice seeds were germinated on wetted Whatman paper for 2 days at 37 °C and then transferred to Sterivent boxes or square Petri dishes with solid medium. Maize and soybean seeds were wetted 24 hours at room temperature prior to sowing in pots.
Arabidopsis primary root growth experiments were done on MS1/2 on vertical standing plates and roots were measured 11 days after germination. Roots were imaged using a flatbed scanner (EPSON Expression 11000XL) and root length was measured using ImageJ software. Arabidopsis shoot biomass was determined in 11 days after germination and growth on vertical standing plates with modMS. Arabidopsis leaf area was measured 21 days after germination on horizontal plates with modMS medium. Plates were scanned from the top using a flatbed scanner (EPSON Expression 11000XL) and the visible leaf area was measured using ImageJ software. Rice plate experiments used vertically standing Petri dishes containing MS1/2 medium (low phosphate - 0.001 mM) solidified with 0.8% washed agar. Plant height was measured 11 days after germination. Rice box experiments used modMS medium and a low phosphate condition of 0.025 mM phosphate. Plant height was measured 13 days after germination. All growth experiments occurred with 10 µM of compound and in low phosphate conditions, unless stated otherwise. Controls always received the same DMSO concentration.

[2] = system: SPX1; assay: Chemical activity assessment: SPX1 phosphate starvation biomarker, pSPX1::GUS reporter line, GUS stained area; format: in vivo, Arabidopsis thaliana; settings: for GUS (SPX1) stained area normalized to the number of seeds (pixels): 50 µM compound, low phosphate modMS liquid medium, 7 days after germination, low phosphate control average of the same plate
Experimental: as §1
For the chemical activity assessment 3 to 8 seeds per well of Arabidopsis pSPX1::GUS line were sown in 96-well plates containing 150 µl of low phosphate modMS liquid medium containing 1% of sucrose. Compounds were added in 50 µM concentration, starting from a 5 mM stock of compounds solved in DMSO. Different chemical substances were separately added to different wells. Per plate, 16 control wells were used, 8 containing only the low phosphate medium and 1% DMSO, and 8 containing high phosphate medium and 1% DMSO. 7 days after germination, plates were scanned using a flatbed scanner (EPSON Expression 11000XL) and analyzed for leaf size. After scanning, the growth medium was replaced by GUS staining solution (see Plant Mol. Biol. Rep. 1994, 12: 37-42 for details) and incubated for 1.5 hours at 37 °C. The plates were scanned a second time and analyzed for GUS signal area. Measurements of both leaf area and GUS signal area were conducted by filtering out and measure the green and blue signal, respectively using ImageJ software. If the green leaf area was 50% or less than the control, samples were omitted. Additionally, all results were visually screened for leaf size and GUS signal.

[3] = system: Arabidopsis; assay: Arabidopsis horizontal plate growth assay (leaf area); format: in vivo, Arabidopsis thaliana; settings: 10 µM, 21 days after germination
Experimental: (§2) All Arabidopsis plant experiments were performed using the Arabidopsis thaliana Columbia-0 background. The Arabidopsis pSPX1::GUS line is described in the […] 2008, 54: 965-975. For rice, the cultivar Nipponbare was used. For maize, the cultivars DKC 2931 and B104 were used for regular pot experiments and sand-based pot experiments, respectively. For soybean, the cultivar Primus was used. […] The medium was solidified due to the addition of 0,6% Gelrite, unless stated otherwise. […]
(§3) Arabidopsis primary root growth experiments were done on MS1/2 on vertical standing plates and roots were measured 11 days after germination. Roots were imaged using a flatbed scanner (EPSON Expression 11000XL) and root length was measured using ImageJ software. Arabidopsis shoot biomass was determined in 11 days after germination and growth on vertical standing plates with modMS. Arabidopsis leaf area was measured 21 days after germination on horizontal plates with modMS medium. Plates were scanned from the top using a flatbed scanner (EPSON Expression 11000XL) and the visible leaf area was measured using ImageJ software. […] Plant height was measured 11 days after germination. […] Plant height was measured 13 days after germination. […]

[4] = system: Arabidopsis; assay: Arabidopsis pot experiment; format: in vivo, Arabidopsis thaliana; settings: low phosphate, 10 µM, 4 weeks of growth
Experimental: as §2
(§4) Regular Arabidopsis and maize pot experiments used an unfertilized potting soil, which was supplemented at the start of the experiment with 50 ml H2O containing 0.25 g/l NH4NO3 and 0.44 g/l (high phosphate) or no (maize and soybean) or 0.11 g/l KH2PO (Arabidopsis) for low phosphate conditions. […] Compound concentration was 10 µM, calculated based on the total water content after watering, and was added at the start of the experiment (Arabidopsis) or once a week (maize). […] All parameters in the sand experiment, except the rate of leaf 4 (measured the first 4 days after emergence), were measured 19 days after sowing. Measurements in the pot experiments with potting soil were done after 4 weeks of growth, except for leaf 5, which was measured at 26 days. s. […]

[5] = system: Rice; assay: Rice plate experiment; format: in vivo; settings: low phosphate 0.001 mM, 10 µM, 11 days after germination
Experimental: as §2, §3

[6] = system: Rice; assay: Rice box experiment; format: in vivo; settings: low phosphate 0.025 mM, 10 µM, 13 days after germination
Experimental: as §2, §3

[7] = system: Maize; assay: Sand-based maize pot experiment; format: in vivo; settings: low phosphate, 10 µM
Experimental: as §1
as §4, with “conditions. For the sand-based maize pot experiment, sand was supplemented with 50 ml H2O containing 0.25 g/l NH4NO3 and 0.38 g/l (high phosphate) or 0.02 g/l (low phosphate) KH2PO4.” for “conditions.”

[8] = system: Maize; assay: Regular maize pot experiment (potting soil); format: in vivo; settings: low phosphate, 10 µM once a week
Experimental: as §1
as §4, with “conditions. For the sand-based maize pot experiment, sand was supplemented with 50 ml H2O containing 0.25 g/l NH4NO3 and 0.38 g/l (high phosphate) or 0.02 g/l (low phosphate) KH2PO4.” for “conditions.”

[9] = system: Maize; assay: Long term maize pot experiment, cultivar B104 (Phenovision platform); format: in vivo
Experimental: (§5) Regular Arabidopsis and maize pot experiments used an unfertilized potting soil, which was supplemented at the start of the experiment with 50 ml H2O containing 0.25 g/l NH4NO3 and 0.44 g/l (high phosphate) or no (maize and soybean) or 0.11 g/l KH2PO (Arabidopsis) for low phosphate conditions. For the sand-based maize pot experiment, sand was supplemented with 50 ml H2O containing 0.25 g/l NH4NO3 and 0.38 g/l (high phosphate) or 0.02 g/l (low phosphate) KH2PO4. Potassium was balanced via addition of KCI. Compound concentration was 10 µM, calculated based on the total water content after watering, and was added at the start of the experiment (Arabidopsis) or once a week (maize). Indexed chlorophyll contents were received via a SPAD 502 Plus Chlorophyll Meter. All parameters in the sand experiment, except the rate of leaf 4 (measured the first 4 days after emergence), were measured 19 days after sowing. Measurements in the pot experiments with potting soil were done after 4 weeks of growth, except for leaf 5, which was measured at 26 days. s. The long term maize pot experiment was performed on the automated Phenovision platform (see Mertens et al, 2021, 20 https.l/doi.org/10.3389/fpls.2021.640914) with maize cultivars B104 and DKC2931. End point measurements occurred after 90 days (B104) or 70 days (DKC2931). Plants were grown on an unfertilized potting soil, which was fertilized bi-weekly with 50 mL modified Hoagland solution (2.5 x concentrated; but with 0.25 mM KH2PO4.).

[10] = system: Maize; assay: Long term maize pot experiment, cultivar DKC2931 (Phenovision platform); format: in vivo; settings: DKC2931, 70 days
Experimental: as §5

[11] = system: Arabidopsis, rice, soybean and maize; assay: Growth experiments in different growing systems and plant species (summary statement); format: in vivo; settings: result in words; plate, box or pot experiments
Experimental: as §2, §3

[12] = Arabidopsis vertical plate, 10 µM, 11 days after germination
[13] = Maize pot long term, B104, 90 days

CNC(=O)c1sc(N2CCOC(C)C2)nc1C (stereo not shown) [Compound 4.3]
Primary root length (in % versus control) [1]: 122%

Cc1nc(N2CCOCC2)sc1CNCC1CN(C)CCO1 (stereo not shown) [Compound 4]
GUS (SPX1) stained area normalized to the number of seeds (pixels) ([2]; Table 2): 9 pixels | suppression of the SPX1 biomarker (blue GUS staining) ([2]; result in words, 7 days of growth in low phosphate conditions): practically completely suppressed | Primary root length (cm) [1, 12]: 3.8 cm | Shoot biomass [1, 12]: 26 mg | Primary root length (in % versus control) [1]: 211% | primary root length relative to the control without compound ([1]; result in words, 10 µM, 11-day-old Arabidopsis plants): almost double | Leaf area (mm^2) ([3]; low phosphate): 91 mm^2 | Leaf area (mm^2) in suboptimal phosphate conditions ([3]; suboptimal phosphate): 151 mm^2 | Rosette size (cm^2) [4]: 19 cm^2 | Plant height (cm) [5]: 15.8 cm | Plant height (cm) [6]: 5.1 cm | Crown root number ([7]; 19 days after sowing): 7 | Plant height (cm) ([7]; 19 days after sowing): 26 cm | Growth rate of leaf 4 ([7]; first 4 days after emergence): 2.3 cm/day | Plant height (cm) ([8]; 4 weeks of growth): 62 cm | Shoot weight ([8]; 4 weeks of growth): 4.4 g | Leaf 5 (cm) ([8]; 26 days): 45 cm | Biomass [9, 13]: 29 g | Plants with developed ears (%) [9, 13]: 54% | Sum of leaf length (cm) [9, 13]: 5473 cm | ear formation ([9]; result in words, maize): stimulated | Biomass [10]: 31 g | Plants with developed ears (%) [10]: 100% | Sum of leaf length (cm) [10]: 3894 cm | effect on the shoot biomass, leaf area or plant height [11]: clear positive effect

Cc1nc(N2CCOCC2)sc1C(=O)NN [Compound 4.1]
Primary root length (in % versus control) [1]: 118%

O=C(Cc1c[nH]c2cc(Cl)ccc12)N1CCOCC1c1ncon1 (stereo not shown)
GUS (SPX1) stained area normalized to the number of seeds (pixels) ([2]; Table 3): 22 pixels

Cc1cnc(CN2CCOCC23CCCC3)o1
GUS (SPX1) stained area normalized to the number of seeds (pixels) ([2]; Table 3): 46 pixels

CC1(C)CN(C(=O)c2csc(-c3ccsc3)n2)CCO1
GUS (SPX1) stained area normalized to the number of seeds (pixels) ([2]; Table 3): 31 pixels

CC1CN(C(=O)c2c(Cl)nc3ccccn23)C(C)CO1 (stereo not shown)
GUS (SPX1) stained area normalized to the number of seeds (pixels) ([2]; Table 3): 4 pixels

COCC1CN(C(=O)NCCc2c[nH]c3ccc(F)cc23)CCO1 (stereo not shown)
GUS (SPX1) stained area normalized to the number of seeds (pixels) ([2]; Table 3): 13 pixels

Cc1nn(C)c(C)c1C1CCCN1CC(O)CN1CCOCC1 (stereo not shown)
GUS (SPX1) stained area normalized to the number of seeds (pixels) ([2]; Table 3): 37 pixels

O=S(=O)(c1ccc(Sc2nnc(-c3ccncc3)[nH]2)nc1)N1CCOCC1
GUS (SPX1) stained area normalized to the number of seeds (pixels) ([2]; Table 3): 6 pixels

COc1cccc(-c2nnn(-c3nc(CN4CCOCC4)nc4sc5c(c34)CCCC5)n2)c1
GUS (SPX1) stained area normalized to the number of seeds (pixels) ([2]; Table 3): 20 pixels

c1ccc(OCCNCCN2CCOCC2)cc1
GUS (SPX1) stained area normalized to the number of seeds (pixels) ([2]; Table 3): 23 pixels

Clc1cnccc1N1CCC(OCCN2CCOCC2)CC1
GUS (SPX1) stained area normalized to the number of seeds (pixels) ([2]; Table 3): 491 pixels

CC1(C)COCCN1C(=O)c1cnc(-c2cccs2)s1
GUS (SPX1) stained area normalized to the number of seeds (pixels) ([2]; Table 3): 45 pixels

O=S(=O)(c1ccc(OCCN(C2CC2)C2CCCc3ccccc32)cc1)N1CCOCC1 (stereo not shown)
GUS (SPX1) stained area normalized to the number of seeds (pixels) ([2]; Table 3): 3 pixels

Cc1cnc(CN2CCOC(c3nc(C(C)C)n[nH]3)C2)o1 (stereo not shown)
GUS (SPX1) stained area normalized to the number of seeds (pixels) ([2]; Table 3): 7 pixels

CCc1ccnc(C(=O)Nc2cnccc2N2CCOCC2)c1
GUS (SPX1) stained area normalized to the number of seeds (pixels) ([2]; Table 3): 27 pixels

CC(C)(C)CC(C)(C)NCc1cnc(N2CCOCC2)nc1
GUS (SPX1) stained area normalized to the number of seeds (pixels) ([2]; Table 3): 5 pixels

CS(=O)(=O)CC1(CN2CCOC(c3ccc(F)cc3)C2)CC1 (stereo not shown)
GUS (SPX1) stained area normalized to the number of seeds (pixels) ([2]; Table 3): 0 pixels
